Legend:
[1] = system: rat neonatal ventricular cardiomyocytes (NVCMs); experiment: Angiotensin II-induced hypertrophy assay in NVCMs; format: cell-based; conditions: 200 nM Ang II 24 h; 10 μM FC9402
Text: Rat neonatal ventricular cardiomyocytes (NVCMs) were isolated from the hearts of 1-2 day old Sprague-Dawley rats (Charles River) in 50-90% yield (70-95% viability) by following the protocol described by Golden et al. (Golden et al., 2012, in Cardiovascular Development. Methods in Molecular Biology (Methods and Protocols), vol 843 (Peng, X., Antonyak, M., Eds.) pp 205-214, Springer, Totowa, N.J.).
NVCMs are maintained in Dulbecco's modified Eagle's medium (DMEM:F12) containing 20% fetal bovine serum (FBS), 5% horse serum, 1× GlutaMAX, and 2 μg/mL insulin. For hypertrophy studies, cells were plated onto 4-well glass chamber slides, precoated with poly-D-lysine and laminin. The maintenance medium was aspirated after incubation for 72 h. The cells were serum-starved overnight in DMEM:F12 containing 1% FBS, 1× GlutaMAX, and 2 ug/mL insulin and then incubated for 24 h in fresh serum-starved medium containing angiotensin II, as indicated. […]

[2] = target: T1, mitochondrial CoQ-dependent respiratory complex II (Mus musculus, UniProt Q8K2B3+Q9CQA3+Q9CXV1+Q9CZB0); experiment: Biochemical selectivity assay, respiratory complex II; conditions: highest concentration tested 11 μM
T1 construct: mouse muscle homogenate preparations that contain disrupted mitochondrial membranes; from tissue; host or cells: mouse muscle homogenate
Procedure: (§1) Inhibitor selectivity was assessed using mouse muscle homogenate preparations that contain disrupted mitochondrial membranes, a feature that makes substrates accessible to each of the membrane-bound respiratory complexes. Spectrophotometric assays for each complex are conducted in the presence or absence of a target-specific inhibitor (FIG. 9) to correct for nonspecific substrate oxidation, as previously described (Spinazzi et al., 2012, Nature Protocols 7: 1235-1246). Thus, the activity of complex I is determined by monitoring the oxidation of NADH in the absence or presence of rotenone. Complex III activity is measured based on the rate of cytochrome C reduction observed in the presence or absence of antimycin A. The reaction catalyzed by complex II produces decylubiquinol (decylCoQH2), which rapidly reduces DCIP. The activity of complex III is determined by monitoring DCIP reduction in the presence and absence of 2-thenoyltrifluoroacetone (TTFA).

H9C2 cells = experiment: Isoproterenol-induced hypertrophy assay in H9C2 cells; format: cell-based, rat; conditions: isoproterenol 100 μM 24 h, then 50 μM 24 h; 10.5 μM FC9402
Procedure: H9C2 cells, a rat ventricular cardiomyoblast cell line were obtained from ATCC (CRL-1446) and maintained in Dulbecco's modified Eagle's medium (DMEM) containing 10% FBS and 1× GlutaMAX. For hypertrophy studies, the cells were plated onto 4-well glass chamber slides precoated with poly-D-lysine. The maintenance medium was aspirated after 24 h and the cells were serum-starved overnight in DMEM containing 1% FBS and 1× GlutaMAX and then incubated for 48 h in fresh serum-starved medium containing isoproterenol, as indicated. […] Images were acquired using a FV3000 Olympus Confocal Microscope and analyzed using ImageJ. Cell surface area was determined by encircling the outer membrane of 30-50 cells per field in 6-10 field images for a total of 500 cells per condition.

[3] = system: mitochondrial CoQ-dependent respiratory complex III; experiment: Biochemical selectivity assay, respiratory complex III; design: species or system mouse; conditions: highest concentration tested 11 μM
Procedure: as §1, with “DCIP.” for “DCIP. The activity of complex III is determined by monitoring DCIP reduction in the presence and absence of 2-thenoyltrifluoroacetone (TTFA).”

[4] = Cell Counting Kit-8 cytotoxicity assay in H9C2 cells; format: cell-based; conditions: rat
Procedure: H9C2 cells, a rat ventricular cardiomyoblast cell line were obtained from ATCC (CRL-1446) and maintained in Dulbecco's modified Eagle's medium (DMEM) containing 10% FBS and 1× GlutaMAX. For hypertrophy studies, the cells were plated onto 4-well glass chamber slides precoated with poly-D-lysine. The maintenance medium was aspirated after 24 h and the cells were serum-starved overnight in DMEM containing 1% FBS and 1× GlutaMAX and then incubated for 48 h in fresh serum-starved medium containing isoproterenol, as indicated.
Cytotoxicity assays were conducted under the same conditions used for hypertrophy assays with NVCMs or H9C2 cells, as described elsewhere herein.

T1 sequence (Q8K2B3 43-664): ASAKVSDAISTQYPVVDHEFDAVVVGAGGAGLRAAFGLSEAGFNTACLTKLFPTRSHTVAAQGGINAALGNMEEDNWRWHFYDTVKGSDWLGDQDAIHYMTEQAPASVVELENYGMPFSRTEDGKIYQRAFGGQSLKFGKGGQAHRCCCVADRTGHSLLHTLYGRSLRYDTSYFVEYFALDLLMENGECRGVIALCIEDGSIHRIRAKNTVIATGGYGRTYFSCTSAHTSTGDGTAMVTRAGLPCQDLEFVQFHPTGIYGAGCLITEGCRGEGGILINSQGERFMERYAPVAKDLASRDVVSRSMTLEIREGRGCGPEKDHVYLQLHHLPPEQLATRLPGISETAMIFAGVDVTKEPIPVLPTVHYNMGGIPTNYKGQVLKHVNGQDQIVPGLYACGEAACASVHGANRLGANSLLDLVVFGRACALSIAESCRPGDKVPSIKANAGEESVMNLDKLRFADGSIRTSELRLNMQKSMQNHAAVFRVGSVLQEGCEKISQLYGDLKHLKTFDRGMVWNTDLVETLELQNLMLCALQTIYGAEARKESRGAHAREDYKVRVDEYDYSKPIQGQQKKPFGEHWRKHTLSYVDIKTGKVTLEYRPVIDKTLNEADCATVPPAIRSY
T1 sequence (Q9CQA3 31-282): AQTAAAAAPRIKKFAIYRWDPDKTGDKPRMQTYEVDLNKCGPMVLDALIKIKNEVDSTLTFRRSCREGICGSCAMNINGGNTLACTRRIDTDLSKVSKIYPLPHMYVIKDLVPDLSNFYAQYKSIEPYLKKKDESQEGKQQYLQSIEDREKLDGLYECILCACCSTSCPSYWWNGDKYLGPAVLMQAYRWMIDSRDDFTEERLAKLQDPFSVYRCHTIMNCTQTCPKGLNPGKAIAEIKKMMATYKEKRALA
T1 sequence (Q9CZB0 30-169): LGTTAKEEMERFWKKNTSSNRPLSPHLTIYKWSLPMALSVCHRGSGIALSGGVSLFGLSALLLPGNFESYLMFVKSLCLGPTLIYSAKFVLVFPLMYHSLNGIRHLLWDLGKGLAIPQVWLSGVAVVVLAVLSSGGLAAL
T1 sequence (Q9CXV1 57-159): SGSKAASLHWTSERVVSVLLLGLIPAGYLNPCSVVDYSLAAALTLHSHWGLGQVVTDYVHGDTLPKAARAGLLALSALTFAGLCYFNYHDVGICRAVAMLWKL

## COc1nc(-c2ncccc2C)cc(-c2ccc(N)cc2)c1C#N [FC9402, 4-(4-aminophenyl)-2-methoxy-6-(3-methylpyridin-2-yl)pyridine-3-carbonitrile]
[1]
  angiotensin II-induced hypertrophy (cell surface area): prevents angiotensin II-induced hypertrophy
[2]
  inhibition of respiratory complex II: did not inhibit
H9C2 cells
  hypertrophic response (cell surface area): mitigates the hypertrophic response
[3]
  inhibition of respiratory complex III: did not inhibit
[4]
  CC50 at 48 h: 56 ± 10 µM

Reference: patent US20220096450A1, “Compounds and Methods for Treating or Preventing Heart Failure” (DREXEL UNIVERSITY, priority 2019, published 2022)
